Here are results for five molecules from patent publication US20220233441A1, “MIC[…] SYSTEMS FOR CANNABIS EXTRACTS AND […]” (Quicksilver Scientific, Inc., priority 2019, published 2022).

Entries after “also recorded” stand apart in the source; their conditions may differ.

A short description of this data set: Formation of shelf-stable and visually clear MOIW microemulsions with different constituents. Type of data set: physicochemical. The source says:
A shelf-stable microemulsion may be determined in one of two ways. […] Either type of dissociation means that the microemulsion is not shelf-stable.
A visually clear microemulsion has an average particle diameter of 200 nm and less and lacks precipitated solid crystals visible to the naked eye.
For the molecule `OC[C@@H](O)[C@@H](O)CO` [erythritol], the “usefulness of the constituent for forming shelf-stable and visually clear MOIW microemulsions” value was “not useful”.
For `OC[C@@H](O)[C@@H](O)[C@H](O)[C@H](O)CO` [mannitol] the value was “not useful”; for `OC[C@@H](O)[C@@H](O)[C@H](O)[C@@H](O)CO` [sorbitol], “not useful”.
The same measure for `OC[C@@H](O)[C@H](O)[C@@H](O)CO` [xylitol]: “not useful”; for polysorbate 20: “did not form shelf-stable and visually clear microemulsions; also recorded: not useful”.
